What was measured:
mice = assay: Observation of side-effects during intraventricular drug infusions; format: in vivo; settings: intraventricular infusion: 50 mg/kg Fasudil for 14 days; 80 mg/kg Lonafarnib for 10 days
Procedure: Fasudil and Lonafarnib have previously been delivered using DMSO, which can damage the BBB and mitochondria as well as cause apoptosis. […] Previous research has shown that ˜98% of all small molecules are not transported across the BBB, whilst other research has shown poor drug transport from CSF to the brain. Taking drug transport across the BBB, and from CSF into the brain parenchyma into consideration, dosages of both 25, 50 and 80 mg/kg were administered in initial pilot experiments.
(§1) In these experiments, a final concentration of 50 mg/kg of Fasudil (10 mM; Selleck Chemicals, Houston, TX, United States) was infused for 14 days in mice and stored at −80° C., whilst a final concentration of 80 mg/kg of Lonafarnib (5 mM; Cayman Chemical, Ann Arbor, MI, United States) was infused for 10 days and stored −20° C. between infusions. […] The same dosages were used during combinatorial infusions of Fasudil and Lonafarnib (administered for a duration of 7 days) in mice (n=4) as the drugs target independent intracellular pathways. All dosages in ml were calculated using; dosage (mg)/concentration (mg/ml)=dose×ml) and were infused at a volume of 60 μl at a rate of 1 μl/min using saline as a control vehicle. […]

[1] = system: 3xTg AD mice injected with AAV-tau; assay: Quantification of tau+ neurons in LEC layer II after AAV-tau injection and intraventricular infusion; format: in vivo; settings: Lonafarnib 80 mg/kg intraventricular, 10 days; 6 months-old 3xTg AD mice; n.s.
Procedure: Mice were treated identically to microdialysis guide implantation surgeries, up until deriving stereotaxic coordinates. To target LEC layer II, a craniotomy was made at 0.5 mm anterior to lambda and ˜4 mm lateral (dependent on animal weight) to the midline. A Hamilton microsyringe (Neuros 32-gauge syringe, 5 μl, Hamilton company, Nevada, United States) was lowered vertically into the brain to a depth ˜3.6 mm (dependent on animal weight) from the surface, and 300-1,500 nl of viruses was injected using a microinjector (Nanoliter 2010, World Precision Instruments Inc., United States). We injected the adeno-associated virus (AAV)8 GFP-2a-P301 Ltau (with the chicken beta actin [CBA] promoter; hereafter referred to as AAV-tau). In AAV-tau the short 2A peptide cleaves GFP and human tau during translation at the ribosome. […]
(§2) In these experiments, a final concentration of 50 mg/kg of Fasudil (10 mM; Selleck Chemicals, Houston, TX, United States) was infused for 14 days in mice and stored at −80° C., whilst a final concentration of 80 mg/kg of Lonafarnib (5 mM; Cayman Chemical, Ann Arbor, MI, United States) was infused for 10 days and stored −20° C. between infusions. […] All dosages in ml were calculated using; dosage (mg)/concentration (mg/ml)=dose×ml) and were infused at a volume of 60 μl at a rate of 1 μl/min using saline as a control vehicle. […]

3xTg AD mice [2] = assay: Quantification of amyloid plaques (number, size) in dSub after intraventricular infusions; format: in vivo; settings: Lonafarnib 80 mg/kg intraventricular, 10 days, 14 months-old 3xTg AD mice
Procedure: Mice were administered a lethal dose of sodium pentobarbital (100 mg/ml; Apotekforeningen, Oslo, Norway) and transcardially perfused with Ringer's solution followed by paraformaldehyde (PFA, 4%; Sigma-Aldrich) in 125 mM phosphate buffer (PB). Brains were extracted and fixed for a minimum of 24 h in PFA at 4° C. and transferred to a 2% DMSO solution prepared in PB for 24 h at 4° C. Brains were sectioned coronally at 40 μm on a freezing-sliding microtome (Microm HM430, ThermoFisher Scientific, Waltham, MA, United States).
An incision was made in the non-implanted hemisphere for visualization of the control hemisphere. Immunohistochemical processing was conducted on the tissue. […]

3xTg AD mice [3] = assay: Multiplex ELISA of Aβ40, Aβ42, p-tau and t-tau in CSF sampled by push-pull microdialysis; format: in vivo; settings: Lonafarnib, day 10 of infusion, average across younger (injected with AAV-tau) and older mice, vs vehicle
Procedure: Animals were implanted with microdialysis guide cannulas 2 months following injections. Push-pull microdialysis apparatus and sampling Push-pull microdialysis was conducted as previously described (Bjorkli et al., 2021 supra). A refrigerated fraction collector (CMA 470) was set to 6° C. for the storage of collected CSF in 300 μl low-retention polypropylene plastic vials (Harvard Apparatus, Cambridge, MA, United States). Fluorinated ethylene propylene (FEP) peristaltic tubing (CMA Microdialysis AB, Kista, Sweden) was placed inside each plastic vial for collection and connected to the cassette of the peristaltic roller pump (Reglo ICC Digital). This peristaltic FEP tubing was connected to the outlet side of microdialysis probes (β-irrigated 2 mDa microdialysis probe; CMA 7; CMA Microdialysis AB, Kista, Sweden) with a polyethersulfone 2 mm membrane with tubing adapters bathed in 75% ethanol. FEP tubing (CMA Microdialysis AB, Kista, Sweden) was connected to each microsyringe. The FEP tubing was then connected to the inlet part of the microdialysis probes. Transparent cages were prepared with 1.5 cm of bedding, filled water bottles, and treats. Saline or drugs were loaded inside a gastight microsyringe (CMA Microdialysis AB, Kista, Sweden), which was placed into a syringe pump (CMA 4004). The “dead volume” of the FEP outlet tubing ([…]) was calculated. 100 cm of FEP outlet tubing was used, and therefore the first […] sampled from each animal were discarded. Prior to inserting the microdialysis probes into the guide cannula, the probe was conditioned in 75% ethanol for better recovery of analytes. At the conclusion of microdialyte sampling, the vials of 60 μl CSF were centrifuged and kept at −80° C. until the samples were analyzed with multiplex ELISA.
as §2
The MILLIPLEX® MAP human Aβ and tau magnetic bead panel 4-plex ELISA kit (Millipore, Burlington, MA, United States) and the Bio-Plex 200 System instrument (Biorad, Hercules, CA, United States) were used to assess simultaneously the concentrations of Aβ40, Aβ42, total tau (t-tau), and phosphorylated tau at Thr181 (p-tau) in CSF samples. The samples were undiluted and analyzed in duplicates.

[4] = cited from earlier work
3xTg AD mice [5] = assay: LAMP1 immunolabelling in dSub; format: in vivo; settings: Lonafarnib infused (n=4) vs vehicle (n=8)
From the text: We immunolabelled for lysosomal associated membrane protein 1 (LAMP1) in 3xTg AD mice.

3xTg AD mice [6] = assay: Quantification of intraneuronal Aβ (Aβ+ neurons) in dSub after drug infusions; format: in vivo; settings: Lonafarnib 80 mg/kg intraventricular, 10 days; young 3xTg AD mice
Procedure: as §1
Effect size (Cohen's D) was calculated based on initial experiments between animals infused with Fasudil and animals infused with a vehicle, and the resulting effects on intraneuronal Aβ in dSub. Based on each group consisting of n=2 animals, an effect size of 0.75 was calculated (0.8 is considered a large effect size). […] Behavioral performance in the morphed environments of the context-dependent spatial memory task was calculated as follows: dig in square-consistent location=1, dig in circle-consistent location=0, dig in any other location=0.5. […]

For `NC(=O)N1CCC(CC(=O)N2CCC([C@H]3c4ncc(Br)cc4CCc4cc(Cl)cc(Br)c43)CC2)CC1` [Lonafarnib, 4-(2-{4-[(11R)-3,10-dibromo-8-chloro-6,11-dihydro-5H-benzo[5,6]cyclohepta[1,2-b]pyridin-11-yl]piperidin-1-yl}-2-oxoethyl)piperidine-1-carboxamide], the observable side-effects (mice) was “no observable side-effects”, the “number of tau+ neurons in LEC following injection of AAV-tau” value [1] was “moderately reduced” and the “size of amyloid plaques in dSub compared to vehicle” value (3xTg AD mice [2]; n.s.) was “moderately increased”. The “number of dense-core amyloid plaques (overlapping with MC1 immunolabelling) in dSub compared to vehicle infused mice” value (3xTg AD mice [2]; p=0.0017) was “effectively reduced”, the “CSF AB42 levels” value (3xTg AD mice [3]; n.s.) was “moderately reduced” and the CSF p-tau levels (3xTg AD mice [3]; n.s.) was “moderately reduced”. For the same compound, the “CSF Aβ40 levels” value (3xTg AD mice [3]; p<0.01) was “effectively reduced”, the CSF t-tau levels (3xTg AD mice [3]; p<0.01) was “effectively reduced” and the “solubility in aqueous buffers” value [4] was “sparingly soluble”. For the same compound, the “LAMP1+ neurons in dSub compared to vehicle infused mice” value (3xTg AD mice [5]) was “more prominent” and the “number of Aβ+ neurons in dSub” value (3xTg AD mice [6]) was “did not affect”.
